The molecules below were run on Entamoeba histolytica (assay: Antiamoebic activity against Entamoeba histolytica HM1:IMSS after 72 hrs by microdilution method).
Assay type: functional, organism-based

Row | Structure (SMILES) | IC50 [µM]
1 | Cc1ccc(NC(=S)N/N=C/c2ccc(/C=C/c3ncc([N+](=O)[O-])n3CCO)cc2)cc1 | 0.56
2 | O=[N+]([O-])c1cnc(/C=C/c2ccc(/C=N/NC(=S)N3CCCC3)cc2)n1CCO | 1.92
3 | O=[N+]([O-])c1cnc(/C=C/c2ccc(/C=N/NC(=S)N3CCC(c4ccccc4)CC3)cc2)n1CCO | 1.25
4 | O=[N+]([O-])c1cnc(/C=C/c2ccc(/C=N/NC(=S)N3CCCCCC3)cc2)n1CCO | 1.62
5 | O=[N+]([O-])c1cnc(/C=C/c2ccc(/C=N/NC(=S)N3CCCc4ccccc43)cc2)n1CCO | 1.18
6 | CN(Cc1ccccc1)C(=S)N/N=C/c1ccc(/C=C/c2ncc([N+](=O)[O-])n2CCO)cc1 | 2.34

The remaining molecules from weak to strong by IC50, led by results:

Row | IC50 [µM] | Structure (SMILES)
7 | 3.67 | O=[N+]([O-])c1cnc(/C=C/c2ccc(/C=N/NC(=S)NCc3ccccc3Cl)cc2)n1CCO
8 | 1.57 | Cc1ccccc1NC(=S)N/N=C/c1ccc(/C=C/c2ncc([N+](=O)[O-])n2CCO)cc1
9 | 1.5 | O=[N+]([O-])c1cnc(/C=C/c2ccc(/C=N/NC(=S)NC3CCCCC3)cc2)n1CCO
10 | 1.13 | CC1CCN(C(=S)N/N=C/c2ccc(/C=C/c3ncc([N+](=O)[O-])n3CCO)cc2)CC1
11 | 0.8 | O=[N+]([O-])c1cnc(/C=C/c2ccc(/C=N/NC(=S)NC3CCCCCCC3)cc2)n1CCO
